Data reported in ChEMBL document CHEMBL4334438, “Discovery of novel glycogen synthase kinase-3α inhibitors: Structure-based virtual screening, preliminary SAR and biological evaluation for treatment of acute myeloid leukemia” (Eur J Med Chem, 2019).

Columns and labels:
[1] = biological target: Cyclin-dependent kinase 1/cyclin B1 (Homo sapiens) (UniProt P06493+P14635); assay: Inhibition of recombinant full length human CDK1/CyclinB assessed as residual activity at 1 uM using Histone H1 as substrate incubated for 40 mins in presence of [gamma-33ATP] by scintillation counting based radiometry assay relative to control; type: protein-complex assay
Chain of Cyclin-dependent kinase 1/cyclin B1 (Homo sapiens) (P06493 whole entry, looked up, the tested form may be a part): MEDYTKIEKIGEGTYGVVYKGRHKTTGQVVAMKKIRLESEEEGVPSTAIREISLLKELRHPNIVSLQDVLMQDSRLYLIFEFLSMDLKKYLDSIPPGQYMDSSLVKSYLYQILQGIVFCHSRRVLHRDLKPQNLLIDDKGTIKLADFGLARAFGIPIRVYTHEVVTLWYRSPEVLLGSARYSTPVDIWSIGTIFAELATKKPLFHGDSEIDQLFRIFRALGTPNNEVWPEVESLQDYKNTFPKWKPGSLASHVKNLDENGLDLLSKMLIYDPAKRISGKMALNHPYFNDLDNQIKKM
Chain of Cyclin-dependent kinase 1/cyclin B1 (Homo sapiens) (P14635 whole entry, looked up, the tested form may be a part): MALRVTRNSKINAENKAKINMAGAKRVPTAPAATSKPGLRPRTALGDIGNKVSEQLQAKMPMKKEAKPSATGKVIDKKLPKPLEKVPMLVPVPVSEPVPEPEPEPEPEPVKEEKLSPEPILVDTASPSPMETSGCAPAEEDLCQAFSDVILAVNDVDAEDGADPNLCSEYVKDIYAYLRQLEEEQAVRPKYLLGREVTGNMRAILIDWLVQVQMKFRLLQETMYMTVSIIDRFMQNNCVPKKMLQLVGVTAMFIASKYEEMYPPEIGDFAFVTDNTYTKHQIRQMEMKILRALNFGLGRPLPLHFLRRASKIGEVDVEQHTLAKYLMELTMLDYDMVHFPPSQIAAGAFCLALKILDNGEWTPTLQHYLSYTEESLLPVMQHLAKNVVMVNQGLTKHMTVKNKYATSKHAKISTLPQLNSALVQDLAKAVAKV

[2] = biological target: Serine/threonine-protein kinase SIK2 (Homo sapiens) (UniProt Q9H0K1); assay: Inhibition of recombinant human SIK2 (1 to 276 residues) assessed as residual activity at 1 uM using KKKVSRSGLYRSPSMPENLNRPR as substrate measured after 40 mins in presence of [gamma33P]ATP by scintillation counting method relative to control
[3] = biological target: NUAK family SNF1-like kinase 2 (Homo sapiens) (UniProt Q9H093); assay: Inhibition of recombinant human full length NUAK2 assessed as residual activity at 1 uM using KKKVSRSGLYRSPSMPENLNRPR as substrate measured after 40 mins in presence of [gamma33P]ATP by scintillation counting method relative to control
Chain of NUAK family SNF1-like kinase 2 (Homo sapiens) (Q9H093 whole entry, the tested form may be a part): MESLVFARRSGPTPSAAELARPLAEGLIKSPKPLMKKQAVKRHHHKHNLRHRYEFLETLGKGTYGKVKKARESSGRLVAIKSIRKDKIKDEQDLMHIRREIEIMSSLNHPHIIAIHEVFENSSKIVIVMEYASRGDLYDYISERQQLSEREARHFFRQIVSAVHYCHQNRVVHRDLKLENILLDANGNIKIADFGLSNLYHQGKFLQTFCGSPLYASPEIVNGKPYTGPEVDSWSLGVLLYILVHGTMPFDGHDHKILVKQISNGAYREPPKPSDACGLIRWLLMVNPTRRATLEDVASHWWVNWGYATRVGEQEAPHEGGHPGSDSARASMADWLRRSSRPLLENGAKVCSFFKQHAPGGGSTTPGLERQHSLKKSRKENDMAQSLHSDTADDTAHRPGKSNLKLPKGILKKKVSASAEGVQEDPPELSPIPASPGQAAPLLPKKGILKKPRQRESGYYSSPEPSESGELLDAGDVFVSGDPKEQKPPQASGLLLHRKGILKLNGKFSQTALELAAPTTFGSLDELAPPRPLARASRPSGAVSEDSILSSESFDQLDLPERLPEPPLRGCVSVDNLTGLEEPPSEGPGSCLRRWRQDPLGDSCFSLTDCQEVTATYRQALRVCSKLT

[4] = biological target: CDK4/Cyclin D3 (Homo sapiens) (UniProt P11802+P30281); assay: Inhibition of recombinant full length human CDK4/CyclinD3 assessed as residual activity at 1 uM using Rb fragment as substrate incubated for 40 mins in presence of [gamma-33ATP] by scintillation counting based radiometry assay relative to control; type: protein-complex assay
[5] = biological target: Tyrosine-protein kinase ABL1 (Homo sapiens) (UniProt P00519); assay: Inhibition of human ABL1 (27 to end residues) assessed as residual activity at 1 uM using EAIYAAPFAKKK as substrate incubated for 40 mins in presence of [gamma-33ATP] by scintillation counting based radiometry assay relative to control
[6] = biological target: Serine/threonine-protein kinase 25 (Homo sapiens) (UniProt O00506); assay: Inhibition of human STK25 (1 to 308 residues) assessed as residual activity at 1 uM using RLGRDKYKTLRQIRQ as substrate measured after 40 mins in presence of [gamma33P]ATP by scintillation counting method relative to control
[7] = biological target: cGMP-dependent protein kinase 2 (Homo sapiens) (UniProt Q13237); assay: Inhibition of recombinant full-length human PRKG2 assessed as residual activity at 1 uM using KKLRRTLSFAEPG as substrate measured after 40 mins in presence of [gamma33P]ATP by scintillation counting method relative to control
[8] = biological target: Tyrosine-protein kinase Lyn (Homo sapiens) (UniProt P07948); assay: Inhibition of recombinant human Lyn assessed as residual activity at 1 uM using poly(Glu, Tyr) 4:1 as substrate after 40 mins in presence of [gamma-33ATP] by scintillation counting based radiometry assay relative to control
[9] = biological target: Serine/threonine-protein kinase PAK 3 (Homo sapiens) (UniProt O75914); assay: Inhibition of recombinant full-length human PAK3 assessed as residual activity at 1 uM using RRRLSFAEPG as substrate measured after 40 mins in presence of [gamma33P]ATP by scintillation counting method relative to control
Chain of Serine/threonine-protein kinase PAK 3 (Homo sapiens) (O75914 whole entry, looked up): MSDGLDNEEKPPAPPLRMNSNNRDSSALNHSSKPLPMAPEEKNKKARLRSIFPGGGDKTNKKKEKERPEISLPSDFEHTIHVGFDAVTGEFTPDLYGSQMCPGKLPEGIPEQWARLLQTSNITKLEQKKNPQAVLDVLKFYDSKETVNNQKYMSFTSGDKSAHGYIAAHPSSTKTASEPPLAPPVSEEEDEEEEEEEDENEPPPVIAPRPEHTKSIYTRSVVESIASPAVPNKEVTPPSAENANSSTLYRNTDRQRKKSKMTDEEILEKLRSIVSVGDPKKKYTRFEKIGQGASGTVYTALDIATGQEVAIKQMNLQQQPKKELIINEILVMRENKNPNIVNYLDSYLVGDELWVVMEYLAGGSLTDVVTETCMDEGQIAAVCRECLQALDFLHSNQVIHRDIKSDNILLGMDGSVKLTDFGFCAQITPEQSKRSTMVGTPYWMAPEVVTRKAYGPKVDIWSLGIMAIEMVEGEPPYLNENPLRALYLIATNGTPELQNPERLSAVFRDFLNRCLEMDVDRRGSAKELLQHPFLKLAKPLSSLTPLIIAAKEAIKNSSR

[10] = biological target: Mitogen-activated protein kinase kinase kinase 2 (Homo sapiens) (UniProt Q9Y2U5); assay: Inhibition of recombinant full length human MEKK2 assessed as residual activity at 1 uM using myelin basic protein as substrate incubated for 40 mins in presence of [gamma-33ATP by scintillation counting based radiometry assay relative to control
Chain of Mitogen-activated protein kinase kinase kinase 2 (Homo sapiens) (Q9Y2U5 whole entry): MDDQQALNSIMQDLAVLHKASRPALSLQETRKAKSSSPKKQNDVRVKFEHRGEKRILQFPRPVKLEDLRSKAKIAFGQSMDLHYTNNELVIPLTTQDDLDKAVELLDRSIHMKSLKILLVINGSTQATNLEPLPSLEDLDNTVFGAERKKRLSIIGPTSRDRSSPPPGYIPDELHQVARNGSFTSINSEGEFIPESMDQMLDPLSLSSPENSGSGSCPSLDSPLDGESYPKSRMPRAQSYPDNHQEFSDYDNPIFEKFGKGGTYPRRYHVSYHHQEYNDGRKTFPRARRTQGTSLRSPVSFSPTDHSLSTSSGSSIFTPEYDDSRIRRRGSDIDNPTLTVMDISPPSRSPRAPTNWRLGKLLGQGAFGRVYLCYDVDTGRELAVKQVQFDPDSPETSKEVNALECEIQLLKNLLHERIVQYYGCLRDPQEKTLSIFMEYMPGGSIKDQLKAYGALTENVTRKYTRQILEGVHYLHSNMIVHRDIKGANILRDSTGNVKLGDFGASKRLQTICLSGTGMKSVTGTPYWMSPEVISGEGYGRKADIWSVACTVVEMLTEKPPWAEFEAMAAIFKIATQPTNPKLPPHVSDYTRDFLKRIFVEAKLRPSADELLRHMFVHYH

[11] = biological target: Wee1-like protein kinase (Homo sapiens) (UniProt P30291); assay: Inhibition of human Wee1 (214 to end residues) assessed as residual activity at 1 uM using LSNLYHQGKFLQTFCGSPLYRRR as substrate measured after 40 mins in presence of [gamma33P]ATP by scintillation counting method relative to control
Chain of Wee1-like protein kinase (Homo sapiens) (P30291 whole entry, looked up): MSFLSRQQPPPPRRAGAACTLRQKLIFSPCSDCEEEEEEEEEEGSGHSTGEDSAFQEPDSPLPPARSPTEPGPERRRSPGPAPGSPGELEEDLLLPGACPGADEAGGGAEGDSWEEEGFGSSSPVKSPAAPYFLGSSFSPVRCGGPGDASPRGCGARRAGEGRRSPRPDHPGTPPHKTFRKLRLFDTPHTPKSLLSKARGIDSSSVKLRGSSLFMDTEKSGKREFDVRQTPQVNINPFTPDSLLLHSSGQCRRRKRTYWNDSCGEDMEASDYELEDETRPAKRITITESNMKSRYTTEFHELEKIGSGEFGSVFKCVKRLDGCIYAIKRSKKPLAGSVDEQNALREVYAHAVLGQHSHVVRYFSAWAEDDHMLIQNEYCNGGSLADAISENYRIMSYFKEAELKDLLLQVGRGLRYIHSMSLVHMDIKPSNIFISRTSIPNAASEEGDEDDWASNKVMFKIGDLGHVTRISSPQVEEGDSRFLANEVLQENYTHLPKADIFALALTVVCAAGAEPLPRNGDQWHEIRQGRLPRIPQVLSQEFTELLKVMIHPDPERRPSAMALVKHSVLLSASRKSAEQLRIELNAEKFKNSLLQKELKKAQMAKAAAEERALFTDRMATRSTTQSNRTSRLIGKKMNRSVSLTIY

[12] = biological target: Activin receptor type-1B (Homo sapiens) (UniProt P36896); assay: Inhibition of human ALK4 (150 to end residues) assessed as residual activity at 1 uM using casein as substrate incubated for 40 mins in presence of [gamma-33ATP] by scintillation counting based radiometry assay relative to control
[13] = biological target: Proto-oncogene tyrosine-protein kinase Src (Homo sapiens) (UniProt P12931); assay: Inhibition of human Src (1 to 530 residues) assessed as residual activity at 1 uM using GGEEEEYFELVKKKK as substrate measured after 40 mins in presence of [gamma33P]ATP by scintillation counting method relative to control
Chain of Proto-oncogene tyrosine-protein kinase Src (Homo sapiens) (P12931 2-536 limits assumed): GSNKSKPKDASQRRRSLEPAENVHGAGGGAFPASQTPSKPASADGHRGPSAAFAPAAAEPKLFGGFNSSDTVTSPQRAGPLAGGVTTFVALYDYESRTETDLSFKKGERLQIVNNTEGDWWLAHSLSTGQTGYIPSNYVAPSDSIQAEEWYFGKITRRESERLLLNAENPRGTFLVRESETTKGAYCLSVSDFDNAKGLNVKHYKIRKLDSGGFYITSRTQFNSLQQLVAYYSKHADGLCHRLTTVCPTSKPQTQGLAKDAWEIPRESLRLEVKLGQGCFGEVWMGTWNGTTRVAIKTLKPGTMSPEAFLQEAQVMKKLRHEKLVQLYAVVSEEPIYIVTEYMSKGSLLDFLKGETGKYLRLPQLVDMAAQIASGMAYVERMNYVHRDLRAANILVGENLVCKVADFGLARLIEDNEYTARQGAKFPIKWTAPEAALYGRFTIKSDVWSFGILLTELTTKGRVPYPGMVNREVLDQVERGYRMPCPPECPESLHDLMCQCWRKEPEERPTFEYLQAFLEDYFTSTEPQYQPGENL

[14] = tested on: RAC-gamma serine/threonine-protein kinase (Homo sapiens), Q9Y243 [S472D]; assay: Inhibition of recombinant human PKBgamma S472D mutant (117 to end residues) assessed as residual activity at 1 uM using GRPRTSSFAEGKK as substrate incubated for 40 mins in presence of [gamma33P]ATP by scintillation counting based radiometry assay relative to control
[15] = biological target: Calcium/calmodulin-dependent protein kinase type 1D (Homo sapiens) (UniProt Q8IU85); assay: Inhibition of recombinant full length human CaMK1delta assessed as residual activity at 1 uM […] incubated for 40 mins in presence of [gamma-33ATP] by scintillation counting based radiometry assay relative to control
Chain of Calcium/calmodulin-dependent protein kinase type 1D (Homo sapiens) (Q8IU85 whole entry, looked up): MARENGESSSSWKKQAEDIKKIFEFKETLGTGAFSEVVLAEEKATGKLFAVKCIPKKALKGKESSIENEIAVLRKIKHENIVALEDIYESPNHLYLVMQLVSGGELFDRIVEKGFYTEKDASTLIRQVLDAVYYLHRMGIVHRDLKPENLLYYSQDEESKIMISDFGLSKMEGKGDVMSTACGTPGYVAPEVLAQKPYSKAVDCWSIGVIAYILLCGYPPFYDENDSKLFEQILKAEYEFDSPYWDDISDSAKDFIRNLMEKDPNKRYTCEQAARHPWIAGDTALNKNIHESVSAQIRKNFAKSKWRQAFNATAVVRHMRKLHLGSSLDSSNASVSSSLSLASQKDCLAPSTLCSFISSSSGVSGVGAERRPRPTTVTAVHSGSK

[16] = tested on: Tyrosine-protein kinase ABL1 (Homo sapiens), P00519 [H396P]; assay: Inhibition of human ABL1 H396P mutant (27 to end residues) assessed as residual activity at 1 uM using EAIYAAPFAKKK as substrate incubated for 40 mins in presence of [gamma-33ATP] by scintillation counting based radiometry assay relative to control
Homo sapiens = species: Homo sapiens; assay: Inhibition of recombinant human full length PI3K p110alpha/p65alpha assessed as residual activity at 1 uM assessed as residual activity at 1 uM using phosphatidylinositol-4, 5-bisphosphate as substrate incubated for 40 mins in presence of [gamma33P]ATP by scintillation counting based radiometry assay relative to control
[17] = biological target: Calcium/calmodulin-dependent protein kinase kinase 1 (Homo sapiens) (UniProt Q8N5S9); assay: Inhibition of recombinant full length human CaMKK1 assessed as residual activity at 1 uM […] incubated for 40 mins in presence of [gamma-33ATP] by scintillation counting based radiometry assay relative to control
Chain of Calcium/calmodulin-dependent protein kinase kinase 1 (Homo sapiens) (Q8N5S9 whole entry, looked up): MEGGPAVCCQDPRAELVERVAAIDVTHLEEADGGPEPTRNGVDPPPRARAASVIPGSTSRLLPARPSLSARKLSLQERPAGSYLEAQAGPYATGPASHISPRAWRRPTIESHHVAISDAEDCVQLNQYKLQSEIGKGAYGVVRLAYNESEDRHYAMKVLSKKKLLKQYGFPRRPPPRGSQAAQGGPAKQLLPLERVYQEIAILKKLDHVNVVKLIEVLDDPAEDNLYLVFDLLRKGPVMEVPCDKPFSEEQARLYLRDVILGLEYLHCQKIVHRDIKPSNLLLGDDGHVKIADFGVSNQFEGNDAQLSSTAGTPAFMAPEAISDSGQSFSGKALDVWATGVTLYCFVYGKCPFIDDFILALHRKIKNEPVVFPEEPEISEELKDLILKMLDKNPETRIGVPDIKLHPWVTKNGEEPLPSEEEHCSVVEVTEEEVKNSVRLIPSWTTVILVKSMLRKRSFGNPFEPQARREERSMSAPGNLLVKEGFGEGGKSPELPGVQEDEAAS

[18] = biological target: Dual specificity tyrosine-phosphorylation-regulated kinase 3 (Homo sapiens) (UniProt O43781); assay: Inhibition of recombinant human DYRK3 assessed as residual activity at 1 uM using RRRFRPASPLRGPPK as substrate at 40 mins in presence of [gamma-33ATP] by scintillation counting based radiometry assay relative to control
[19] = biological target: Tyrosine-protein kinase Fyn (Homo sapiens) (UniProt P06241); assay: Inhibition of recombinant full length human Fyn assessed as residual activity at 1 uM using KVEKIGEGTYGVVYK as substrate at 40 mins in presence of [gamma-33ATP] by scintillation counting based radiometry assay relative to control
[20] = biological target: Protein-tyrosine kinase 2-beta (Homo sapiens) (UniProt Q14289); assay: Inhibition of recombinant human full length PYK2 assessed as residual activity at 1 uM using poly(Glu, Tyr) 4:1 as substrate measured after 40 mins in presence of [gamma33P]ATP by scintillation counting method relative to control
[21] = biological target: Mitogen-activated protein kinase 14 (Homo sapiens) (UniProt Q16539); assay: Inhibition of recombinant human full length SAPK2a assessed as residual activity at 1 uM using myelin basic protein as substrate measured after 40 mins in presence of [gamma33P]ATP by scintillation counting method relative to control
Chain of Mitogen-activated protein kinase 14 (Homo sapiens) (Q16539 whole entry): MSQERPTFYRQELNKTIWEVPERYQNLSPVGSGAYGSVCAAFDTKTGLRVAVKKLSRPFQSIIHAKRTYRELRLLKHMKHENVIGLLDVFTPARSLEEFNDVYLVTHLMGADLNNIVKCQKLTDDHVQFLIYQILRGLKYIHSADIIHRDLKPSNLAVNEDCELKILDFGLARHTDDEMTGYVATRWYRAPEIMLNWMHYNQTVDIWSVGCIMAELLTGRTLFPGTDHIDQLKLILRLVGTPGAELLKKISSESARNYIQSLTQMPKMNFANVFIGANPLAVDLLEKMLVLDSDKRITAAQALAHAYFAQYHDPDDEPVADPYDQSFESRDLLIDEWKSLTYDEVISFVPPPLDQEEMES

| SMILES | Activity [1] [%] | Activity [2] [%] | Activity [3] [%] | Activity [4] [%] | Activity [5] [%] | Activity [6] [%] | Activity [7] [%] | Activity [8] [%] | Activity [9] [%] | Activity [10] [%] | Activity [11] [%] | Activity [12] [%] | Activity [13] [%] | Activity [14] [%] | Activity [15] [%] | Activity [16] [%] | Activity (Homo sapiens) [%] | Activity [17] [%] | Activity [18] [%] | Activity [19] [%] | further results |
| --- | --- | --- | --- | --- | --- | --- | --- | --- | --- | --- | --- | --- | --- | --- | --- | --- | --- | --- | --- | --- | --- |
| C=CCOC(=O)c1cc(-c2ccc(/C=C3/NC(=S)NC3=O)o2)ccc1Cl | 65 | 104 | 111 | 98 | 122 | 90 | 94 | 92 | 102 | 98 | 106 | 105 | 92 | 72 | 87 | 110 | 85 | 96 | 104 | 102 | Activity [20]: 104%; Activity [21]: 101% |
| N=C1NC(=O)/C(=C\c2ccc(-c3cccc([N+](=O)[O-])c3)o2)S1 | 73 | 99 | 95 | 87 | 85 | 97 | 51 | 83 | 95 | 93 | 103 | 109 | 74 | 100 | 93 | 80 | 100 | 92 | 76 | 79 | Activity [20]: 103%; Activity [21]: 100% |
